Structures can show the parent of a compound that is named as a salt.
Experiments:
human EP1 receptor [1] = target: T1, human EP1 receptor (Homo sapiens, UniProt P34995); experiment: Binding assay for the human prostanoid EP1 receptor (competition with [3H]-PGE2); conditions: binding to human EP1 receptor, [3H]-PGE2 competition, CHO-K1 cell membranes; averages of a number of experiments; read-out: pIC50 value (converted)
T1 construct: expressed in transfected cells; host or cells: CHO-K1
T1 sequence (P34995 1-402): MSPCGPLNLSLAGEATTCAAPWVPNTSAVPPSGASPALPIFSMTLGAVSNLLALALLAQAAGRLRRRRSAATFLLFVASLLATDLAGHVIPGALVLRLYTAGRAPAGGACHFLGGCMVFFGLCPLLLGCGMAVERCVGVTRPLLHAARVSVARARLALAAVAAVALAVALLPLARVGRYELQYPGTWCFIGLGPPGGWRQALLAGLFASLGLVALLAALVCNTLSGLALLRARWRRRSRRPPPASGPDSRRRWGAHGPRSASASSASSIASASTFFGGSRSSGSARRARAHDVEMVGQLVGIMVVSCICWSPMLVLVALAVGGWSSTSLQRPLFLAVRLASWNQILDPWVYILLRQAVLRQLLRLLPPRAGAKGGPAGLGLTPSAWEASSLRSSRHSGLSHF
Method: Competition assay using [^3H]-PGE2.
Compound potencies are determined using a radioligand binding assay. In this assay compound potencies are determined from their ability to compete with tritiated prostaglandin E2 ([^3H]-PGE2) for binding to the human EP1 receptor.
This assay utilises Chinese hamster ovary-K1 (CHO-K1) cells into which a stable vector containing the EP1 cDNA has previously been transfected. Cells are cultured in suitable flasks containing culture medium such as DMEM:F-12 supplemented with 10% v/v foetal calf serum, 2 mM L-glutamine, 0.25 mg/ml geneticin, 10 μg/ml puromycin and 10 μM indomethacin.
Cells are detached from the culture flasks by incubation in calcium and magnesium free phosphate buffered saline containing 1 mM disodium ethylenediaminetetraacetic acid (Na2EDTA) and 10 μM indomethacin for 5 min. The cells are isolated by centrifugation at 250×g for 5 mins and suspended in an ice cold buffer such as 50 mM Tris, 1 mM Na2EDTA, 140 mM NaCl, 10 μM indomethacin (pH 7.4). The cells are homogenised using a Polytron tissue disrupter (2×10 s burst at full setting), centrifuged at 48,000×g for 20 mins and the pellet containing the membrane fraction is washed (optional) three times by suspension and centrifugation at 48,000×g for 20 mins. The final membrane pellet is suspended in an assay buffer such as 10 mM 2-[N-morpholino]ethanesulphonic acid, 1 mM Na2EDTA, 10 mM MgCl2 (pH 6). Aliquots are frozen at −80° C. until required.
For the binding assay the cell membranes, competing compounds and [^3H]-PGE2 (3 nM final assay concentration) are incubated in a final volume of 100 μl for 30 min at 30° C. All reagents are prepared in assay buffer. Reactions are terminated by rapid vacuum filtration over GF/B filters using a Brandell cell harvester. The filters are washed with ice cold assay buffer, dried and the radioactivity retained on the filters is measured by liquid scintillation counting in Packard TopCount scintillation counter.
The data are analysed using non linear curve fitting techniques to determine the concentration of compound producing 50% inhibition of specific binding (IC50).

human EP1 receptor [2] = target: T1, human EP1 receptor; experiment: human EP1 calcium mobilisation assay; assay type: cell-based; conditions: human EP1, PGE2-induced calcium mobilisation in CHO-K1 cells; free bases or sodium salts; averages of a number of experiments; read-out: functional pKi value (converted)
In short: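 CHO-K1 cells stably expressing human EP1, loaded with Fluo-4 after 24 h at 37° C; compounds added before PGE2 challenge. Inhibition of PGE2-induced [Ca2+]i rise read by FLIPR fluorescence; pIC50 from curve fitting of half-maximal inhibition.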

| IC50 (human EP1 receptor [1]) | Ki (human EP1 receptor [2]) | SMILES |
| --- | --- | --- |
| ≤ 10 nM | ≤ 10 nM | O=C(O)c1ccc(Cc2cc(Cl)ccc2OCc2ccccc2)o1 [Example 18, Sodium 5-({5-chloro-2-[(phenylmethyl)oxy]phenyl}methyl)-2-furancarboxylate] |
| ≤ 10 nM | < 1000 nM | O=C(O)c1ccc(Cc2cc(Cl)ccc2OCc2ccc(F)cc2F)o1 [Example 19, Sodium 5-[(5-chloro-2-{[(2,4-difluorophenyl)methyl]oxy}phenyl)methyl]-2-furancarboxylate] |
| ≤ 10 nM | < 1000 nM | O=C(O)c1ccc(Cc2cc(Cl)ccc2OCc2c(F)cc(F)cc2F)o1 [Example 20, Sodium 5-[(5-chloro-2-{[(2,4,6-trifluorophenyl)methyl]oxy}phenyl)methyl]-2-furancarboxylate] |
| ≤ 10 nM | ≤ 10 nM | O=C(O)c1ccc(Cc2cc(Cl)ccc2OCc2ccc(F)cc2)o1 [Example 21, Sodium 5-[(5-chloro-2-{[(4-fluorophenyl)methyl]oxy}phenyl)methyl]-2-furancarboxylate] |
| ≤ 10 nM | ≤ 10 nM | O=C(O)c1ccc(Cc2cc(Cl)ccc2OCc2ccc(F)cc2Cl)o1 [Example 22, Sodium 5-[(5-chloro-2-{[(2-chloro-4-fluorophenyl)methyl]oxy}phenyl)methyl]-2-furancarboxylate] |
| ≤ 10 nM | ≤ 10 nM | O=C(O)c1ccc(Cc2cc(Cl)ccc2OCc2ccc(Cl)cc2F)o1 [Example 23, Sodium 5-[(5-chloro-2-{[(4-chloro-2-fluorophenyl)methyl]oxy}phenyl)methyl]-2-furancarboxylate] |
| ≤ 10 nM | ≤ 10 nM | O=C(O)c1ccc(Cc2cc(Cl)ccc2OCc2cc(F)c(F)cc2F)o1 [Example 25, Sodium 5-[(5-chloro-2-{[(2,4,5-trifluorophenyl)methyl]oxy}phenyl)methyl]-2-furancarboxylate] |
| ≤ 10 nM | ≤ 10 nM | O=C(NS(=O)(=O)c1ccccc1)c1ccc(Cc2cc(Cl)ccc2OCc2ccc(F)cc2F)o1 [Example 35, 5-[(5-Chloro-2-{[(2,4-difluorophenyl)methyl]oxy}phenyl)methyl]-N-(phenylsulfonyl)-2-furancarboxamide] |
| ≤ 10 nM | ≤ 10 nM | O=C(Nc1c(F)cccc1F)c1ccc(Cc2cc(Cl)ccc2OCc2ccc(F)cc2F)o1 [Example 36, 5-[(5-Chloro-2-{[(2,4-difluorophenyl)methyl]oxy}phenyl)methyl]-N-(2,6-difluorophenyl)-2-furancarboxamide] |
| ≤ 10 nM | ≤ 10 nM | CC(C)COc1ccc(Cl)cc1Cc1ccc(C(=O)NCc2ccccc2)o1 [Example 57, 5-({5-Chloro-2-[(2-methylpropyl)oxy]-phenyl}methyl)-N-(phenylmethyl)-2-furancarboxamide] |
| ≤ 10 nM | < 1000 nM | O=C(Nc1c(F)cccc1F)c1ccc(Cc2cc(Cl)ccc2OCc2ccc(Cl)cc2F)o1 [Example 84, 5-[(5-Chloro-2-{[(4-chloro-2-fluorophenyl)methyl]oxy}-phenyl)methyl]-N-(2,6-difluorophenyl)-2-furancarboxamide] |
| ≤ 10 nM | ≤ 10 nM | CC(C)COc1ccc(Cl)cc1Cc1ccc(-c2nc3ccccc3[nH]2)o1 [Example 98, 2-[5-({5-Chloro-2-[(2-methylpropyl)oxy]phenyl}methyl)-2-furanyl]-1H-benzimidazole] |
| ≤ 10 nM | < 1000 nM | Clc1ccc(OCc2ccccc2)c(Cc2ccc(-c3nc4ccccc4[nH]3)o2)c1 [Example 99, 2-[5-({5-Chloro-2-[(phenylmethyl)oxy]phenyl}methyl)-2-furanyl]-1H-benzimidazole] |
| ≤ 10 nM | ≤ 10 nM | COc1nccc2[nH]c(-c3ccc(Cc4cc(Cl)ccc4OCC(C)C)o3)nc12 [Example 104, 2-[5-({5-Chloro-2-[(2-methylpropyl)oxy]-phenyl}methyl)-2-furanyl]-4-(methyloxy)-1H-imidazo[4,5-c]pyridine] |
| ≤ 10 nM | < 1000 nM | COc1ccc2[nH]c(-c3ccc(Cc4cc(Cl)ccc4OCC(C)C)o3)nc2c1 [Example 105, 2-[5-({5-Chloro-2-[(2-methylpropyl)oxy]-phenyl}methyl)-2-furanyl]-5-(methyloxy)-1H-benzimidazole] |
| ≤ 10 nM | ≤ 10 nM | CC(C)COc1ccc(Cl)cc1Cc1ccc(-c2nc3nccnc3[nH]2)o1 [Example 106, 2-[5-({5-Chloro-2-[(2-methylpropyl)oxy]-phenyl}methyl)-2-furanyl]-1H-imidazo[4,5-b]pyrazine] |
| ≤ 10 nM | < 1000 nM | CC(C)COc1ccc(Cl)cc1Cc1ccc(-c2nc3cc4cnn(C)c4cc3[nH]2)o1 [Example 107, 6-[5-({5-Chloro-2-[(2-methylpropyl)oxy]-phenyl}methyl)-2-furanyl]-1-methyl-1,5-dihydroimidazo[4,5-f]indazole] |
| ≤ 10 nM | < 1000 nM | CC(C)COc1ccc(Cl)cc1Cc1ccc(-c2nc3c(F)cccc3[nH]2)o1 [Example 108, 2-[5-({5-Chloro-2-[(2-methylpropyl)oxy]-phenyl}methyl)-2-furanyl]-4-fluoro-1H-benzimidazole] |
| ≤ 10 nM | < 1000 nM | CC(C)COc1ccc(Cl)cc1Cc1ccc(-c2nc3cc(N4CCN(C)CC4)ccc3[nH]2)o1 [Example 111, 2-[5-({5-Chloro-2-[(2-methylpropyl)oxy]-phenyl}methyl)-2-furanyl]-5-(4-methyl-1-piperazinyl)-1H-benzimidazoletrihydrochloride] |
| ≤ 10 nM | < 1000 nM | CC(C)COc1ccc(Cl)cc1Cc1ccc(-c2nc3ccc(N4CCOCC4)cc3[nH]2)o1 [Example 112, 2-[5-({5-Chloro-2-[(2-methylpropyl)oxy]-phenyl}methyl)-2-furanyl]-5-(4-morpholinyl)-1H-benzimidazoledihydrochloride] |
| ≤ 10 nM | < 1000 nM | CC(C)COc1ccc(Cl)cc1Cc1ccc(-c2nc3ccc(N(C)C)cc3[nH]2)o1 [Example 113, 2-[5-({5-Chloro-2-[(2-methylpropyl)oxy]-phenyl}methyl)-2-furanyl]-N,N-dimethyl-1H-benzimidazol-5-aminedihydrochloride] |
| ≤ 10 nM | < 1000 nM | CC(C)COc1ccc(Cl)cc1Cc1ccc(-c2nc3ccc(CCO)cc3[nH]2)o1 [Example 115, 2-{2-[5-({5-Chloro-2-[(2-methylpropyl)oxy]-phenyl}methyl)-2-furanyl]-1H-benzimidazol-5-yl}ethanolhydrochloride] |
| ≤ 10 nM | < 1000 nM | CC(C)COc1ccc(Cl)cc1Cc1ccc(-c2nc3cnccc3[nH]2)o1 [Example 117, 2-[5-({5-Chloro-2-[(2-methylpropyl)oxy]phenyl}-methyl)-2-furanyl]-1H-imidazo[4,5-c]pyridine] |
| ≤ 10 nM | < 1000 nM | CC(C)COc1ccc(Cl)cc1Cc1ccc(-c2nc3ccc(CO)cc3[nH]2)o1 [Example 132] |
| ≤ 10 nM | < 1000 nM | OCc1ccc2nc(-c3ccc(Cc4cc(Cl)ccc4OCc4ccccc4)o3)[nH]c2c1 [Example 133, {2-[5-({5-Chloro-2-[(phenylmethyl)oxy]phenyl}methyl)-2-furanyl]-1H-benzimidazol-5-yl}methanol] |
| ≤ 10 nM | > 1000 nM | CC(C)COc1ccc(Cl)cc1Cc1ccc(-c2nc3nc(Br)cnc3[nH]2)o1 [Example 136, 5-Bromo-2-[5-({5-chloro-2-[(2-methylpropyl)oxy]phenyl}methyl)-2-furanyl]-1H-imidazo[4,5-b]pyrazine hydrochloride] |
| ≤ 10 nM | < 1000 nM | CC(C)COc1ccc(Cl)cc1Cc1ccc(-c2nc3ccc(CN(C)C)cc3[nH]2)o1 [Example 142, ({2-[5-({5-Chloro-2-[(2-methylpropyl)oxy]-phenyl}methyl)-2-furanyl]-1H-benzimidazol-5-yl}methyl)dimethyl-amine dihydrochloride] |

Reference: patent US20080287430A1, “Furan Compounds Useful As Ep1 Receptor Antagonists” (priority 2005, published 2008)
